From patent publication US10959984B2, “Methods for treating cancer with RORγ inhibitors” (THE REGENTS OF THE UNIVERSITY OF CALIFORNIA, priority 2015, dated 2021) come the findings set out here.

Test [1] deals with A549 human lung cancer cells xenograft tumors. Kind of test: A549 lung cancer xenograft tumor growth. The following applies: A549 xenografts, 5 mg/kg/day i.p., six weeks. Format: in vivo, mice. How it is done:
FIG. 32A: Cell viability, as measured by Cell-Titer GLO, of different lung cancer cells treated with the indicated concentrations of SR2211 for 4 days. FIG. 32B: Cell viability, as measured by Cell-Titer GLO, of different lung cancer cells treated with the indicated concentrations of GSK805 for 4 days. FIG. 32C: Half-maximal inhibitory concentration (IC50) for SR2211 and GSK805 in indicated lung cancer cell lines treated for 4 days. FIG. 32D: Effects of the indicated treatments (SR2211, 5 mg/kg i.p. five times per week; or vehicle) on the growth of lung cancer A549 xenografts (n=6 mice per group). Treatment started when A549 tumors reached approximately 100 mm^3. Mean tumor volume±s.e.m., Mean tumor weight±s.e.m. and representative tumor images are shown. P<0.01.

The test system of the next test is AR. Kind of test: Anti-AR ChIP-seq. Format: cell-based, human. Particulars: C4-2B cells, 5 μM, 24 hours. How it is done: C4-2B cells were treated with vehicle or SR2211 (5 μM) for 24 hours before harvested for ChIP-seq. ChIP-seq experiments were performed as described^65. Anti-AR ChIP-seq was repeated in two independent experiments. Antibodies used were against AR (Santa Cruz; sc-815); RNA Pol II (Santa cruz; sc-899); H3K4me2 (Abcam ab32356); H3K4me3 (Abcam; ab8580); H3 (acetyl K27) (Abcam; ab4729). Libraries were quantified with the Bioanalyzer 2100 (Agilent) and sequenced on the Illumina HiSeq 2000 Sequencer (BGI, Hong Kong). Sequencing tags were mapped against the Homo sapiens (Human) reference genome (hg19) using Bowtie 2^66. Uniquely mapped tags were used for peak calling by MACS(2.1.0)^67 to identify regions of ChIP-Seq enrichment over background. A q value threshold of enrichment of 5×10^−2 was used for all data sets. Normalized genome-wide signal coverage tracks from raw read alignment files were built by MACS2, UCSC tools (http://hgdownload.cse.ucsc.edu/admin/exe/linux.x86_64/bedGraphToBigWig/bedClip) and bedTools (http://code.google.com/p/bedtools/). Visualization of ChIP-seq signal at enriched genomic regions (avgprof and heatmap) was achieved by using ngs.plot (https://github.com/shenlab-sinai/ngsplot). ChIP-seq data have been deposited to NCBI-GEO with accession code GSE72714.

Test [2] concerns H3K4me3 and H3K27ac at the RORE site and AR promoter. Briefly: ChIP-qPCR at the AR-RORE site and AR promoter. Format: cell-based, human. The following applies: C4-2B cells, 5 μM, 24 h. The procedure:
ChIP-qPCR analysis was performed as described previously^49. The antibodies used for ChIP assay are AR (Santa Cruz; sc-815); RNA Pol-II (Santa cruz; sc-899); H3K4me2 (Abcam ab32356); H3K4me3 (Abcam; ab8580); H3K27ac (Abcam; ab4729); H3 (Active Motif; #39163); p300 (Santa Cruz; sc-585); SRC-1 (Santa Cruz; sc-8995); SRC-3/ACTR^64, and IgG (Santa Cruz; sc-2027). PCR primers used in the ChIP assays were listed in the Supplementary table 2. ChiPs were performed with each experimental point in triplicate, and each experiment was repeated three times.

The subject of test [3] is OVCAR420, T24, ECC1, HepG2, Hep3B, T98G, SUDHL4, SUDHL6, HCT116 and docetaxel-resistant C4-2B cells. Briefly: CellTiter-GLO viability, cells of other cancer types. Format: cell-based, human. The following applies: ovarian OVCAR420, bladder T24, endometrial ECC1, liver HepG2 and Hep3B, glioblastoma T98G, DLBCL SUDHL4 and SUDHL6, colon HCT116, docetaxel-resistant C4-2B; 4 days. The procedure:
(§1) For cell viability, cells were seeded in 96-well plates at 1500-2500 cells per well (optimum density for growth) in a total volume of 100 μl media. Serially diluted compounds in […] of media were added to the cells 12 hours later. After 4 days of incubation, Cell-Titer GLO reagents (Promega) were added and luminescence was measured on GLOMAX microplate luminometer (Promega), according to the manufacturer's instructions. All experimental points were set up as sextuplicate as biological replication and the entire experiments were repeated three times. The data are presented as percentage of viable cells with vehicle treated cells set as 100. The estimated in vitro IC50 values were calculated using GraphPad Prism 6 software.
(§2) Using a CellTiter-GLO assay, the viability of cells of different cancer types was measured after treatment with different concentrations of RORγ small molecule inhibitors for 4 days.
(In general: Cellular ATP, detected with luciferase, serves as a proxy for viable cell number.)

The test system of another test is 22Rv1 xenografts. Briefly: 22Rv1 xenograft tumor growth. Format: in vivo, mice. Particulars: nude mice; SR2211 5 mg/kg i.p., 8k/E11 10 and 20 mg/kg i.p., five times per week (FIG. 3A). How it is done:
Four-week-old male SCID C.B17 mice (for C4-2B and VCaP) or BALB/c nu/nu athymic mice (for 22Rv11 and PC-3) were purchased from Harlan Inc. For establishing tumors, 2×10^6 cells were suspended in total of 100 μL PBS/Matrigel (1:1) and implanted subcutaneously into the dorsal flank on both sides of the mice. Animal group size of six or more was estimated to have a high statistic power, based on power calculation (http://www.biomath.info/power/) and previous studies involving the same xenograft models^34,68. When the tumor volume was approximately 80 mm^3, the mice were randomized and then treated intraperitoneally (i.p.) with 100 μl of either vehicle or RORγ antagonists SR2211, XY011/8k (in a formulation of 15% Cremophor EL, Calbiochem, 82.5% PBS, and 2.5% DMSO) for five times per week. Tumor growth was monitored by calipers with volume calculated using the equation: (π/6 (length×width2)). Body weight during the course of the study was also monitored. At the end of the studies mice were killed and tumors were dissected and weighed. Additionally, prostate, seminal vesicle, testis, kidney, heart, lung, liver, epididymal fat pad and spleen were harvested and weighed. To assess the effect of combining RORγ antagonists and ENZ on the growth of castrated-resistant VCaP xenografts (CRPC-VCaP), first, SCID C.B17 mice were injected with VCaP cells as above to establish the tumors. Then, mice bearing tumors of approximately 180 mm^3 were surgically castrated. They were then observed for tumor regression. Once tumors grew back to the pre-castration size, mice were randomized and treated with vehicle, 5 mg kg^−1 SR2211, 10 mg […] ENZ or a combination of 5 mg kg^−1 SR2211 and 10 mg kg^−1 ENZ. ENZ was given by oral gavage as previously described^68 and SR2211 was administered i.p as above. Mice were excluded from the study if bearing no tumor or tumor with size twice larger or smaller than the mean, at the time of randomization.

Test [4] relates to ER-positive cells, such as MCF-7 and T47D. Briefly: CellTiter-GLO viability, ER-positive breast cancer cells. Format: cell-based. Particulars: Homo sapiens, 96 h; ER-positive cells MCF-7 and T47D, treated for 4 days. How it is done: as §1, §2

As a reminder, the IC50 is the point on the concentration scale where inhibition reaches its midpoint. A low value points to greater potency. For `OC(c1ccc(-c2ccc(CN3CCN(Cc4ccncc4)CC3)cc2)c(F)c1)(C(F)(F)F)C(F)(F)F` [SR2211, 2-Fluoro-4′-[[4-(4-pyridinylmethyl)-1-piperazinyl]methyl]-a,a-bis (trifluoromethyl)-[1,1′-biphenyl]-4-methanol], the “tumor growth of xenograft lung tumor model” value in test [1] is given as “strongly inhibited tumor growth”. Further, the “genome-wide AR binding to its target loci” value in the test with AR is on record as “dramatic inhibition of genome-wide AR binding”. In addition, the “gene activating marks H3K4me3 and H3K27ac at the RORE site and AR promoter” value in test [2] was “strongly reduced”. The “growth and survival of cancer cells of other types” value in test [3] was “significant inhibition of the growth and survival”. Also, the “growth of xenograft tumors” value in the test with 22Rv1 xenografts is “strongly inhibited growth of xenograft tumors”. Moreover, the IC50 in test [4] is > 10 µM.
